ChEMBL document CHEMBL1147860, “ABC synthesis and antitumor activity of a series of Annonaceous acetogenin analogs with a threo, trans, threo, trans, threo-bis-tetrahydrofuran core unit” (Bioorg Med Chem Lett, 2007)

Test system: HCT-116
Assay: Cytotoxicity against HCT116 cells
Assay type: functional, cell-based
Settings: Homo sapiens

CCCCCCCC[C@@H](O)[C@H]1CC[C@H]([C@H]2CC[C@H]([C@H](O)CCCCCCCCCC[C@@H](O)CC3=C[C@H](C)OC3=O)O2)O1
IC50: 0.5 nM

C[C@H]1C=C(CCCCCCCCCCC[C@@H](O)[C@H]2CC[C@H]([C@H]3CC[C@H]([C@H](O)CCCCCCCCCCCO)O3)O2)C(=O)O1
IC50: 35 nM

C[C@H]1C=C(C[C@H](O)CCCCCCCCCC[C@@H](O)[C@H]2CC[C@H]([C@H]3CC[C@H]([C@H](O)CCCCCCO)O3)O2)C(=O)O1
IC50: 3.8 nM

C[C@H]1C=C(C[C@H](O)CCCCCCCCCC[C@@H](O)[C@H]2CC[C@H]([C@H]3CC[C@H]([C@H](O)CCCCCCCCCCCO)O3)O2)C(=O)O1
IC50: 0.6 nM

COCOCCCCCC[C@@H](O)[C@H]1CC[C@H]([C@H]2CC[C@H]([C@H](O)CCCCCCCCCC[C@@H](O)CC3=C[C@H](C)OC3=O)O2)O1
IC50: 16 nM

CCCCCCCCCCC(O)C1CCC(C2CCC(C(O)CCCCCCCC[C@H](O)CC3=C[C@@H](C)OC3=O)O2)O1 (stereo partly specified) [ASIMICIN]
IC50: 8.8 nM
